Assay results taken from publication PMC11003925, “Antimicrobial activity and properties of de novo design of short synthetic lipopeptides” (Folia Microbiologica, 2024).
≈ marks a conversion by molar mass, not a printed value. Residues, ends and D or L forms follow the SMILES beside them. *: point of attachment. Palmitoyl = CCCCCCCCCCCCCCCC(=O)*

Legend:
B. subtilis DBM 3006 = assay type: cell-based, Bacillus subtilis
Method: (§1) A Bioscreen C automated microbiology growth curve analysis system (Growth Curves, Piscataway, NJ, USA) was used for the quantitative determination of antimicrobial activity (minimal inhibitory concentration, MIC) of PAL/LCA-peptides. Optical density was measured with a wide bandpass filter (wavelength range 420–580 nm) at regular intervals and temperatures. This assay was performed in a special microtiter plate (10 × 10 wells) that allowed the simultaneous testing of a large number of samples against several microorganisms. The total testing volume was 100 µL, obtained by mixing 10 µL of microbial culture with OD600 equal to 0.1 with growth medium and a solution of the tested compounds. The positive controls were vancomycin and tetracycline for Bacillus subtilis (100 µg/mL) for Gram-positive bacteria, kanamycin, and tetracycline for Acinetobacter baumannii (100 µg/mL) for Gram-negative bacteria, and clotrimazole or amphotericin (100 µg/mL) for fungi. The maximal concentration of tested lipoproteins was 1 mg/mL. A pure growth medium was used as the negative control. The measurement period was 25 h. The lowest concentration with a 100% inhibition effect for 24 h of incubation was chosen as the MIC. The antibacterial activity of each compound was expressed as the minimum inhibitory concentration MIC (MIC is the lowest concentration of the compound needed to inhibit the growth of bacterial cells) and IC50 (IC50 is the concentration of the compound needed to inhibit the growth of bacterial cells by 50%).

Staph. aureus DBM 3002 = assay type: cell-based, Staphylococcus aureus
Method: as §1

Staph. aureus MRSA1 = assay type: cell-based, Staphylococcus aureus
Method: as §1

HepG2 = assay: Cytotoxicity assay (xCELLigence impedance); assay type: cell-based, human; details: 24 h exposure
Method: (§2) Experiments were carried out using an xCELLigence RTCA DP Instrument (Roche Diagnostics GmbH, Mannheim, Germany) which was placed into an incubator (37 °C and 5% CO2). Cell proliferation and cytotoxicity experiments were performed using modified 16-well plates (E-plate, Roche Diagnostics GmbH, Mannheim, Germany). Microelectrodes were attached to the bottom of the wells for the impedance-based detection of attachment, spreading, and proliferation of the cells (Stoddart [2011]). This system monitors cellular events in real time without the incorporation of labels by measuring electrical impedance across an interdigitated microelectrode integrated into the bottom of this special tissue culture plate. This impedance measurement improves upon conventional endpoint assays and provides quantitative information about the biological status of the cells, including cell number, adhesion, viability, and morphology. Ninety microliters of cultivation medium was used for the blank sample, and subsequently, 100 µL of HepG2 or HEK293T cell suspension (7 × 10^5 cells/mL) was added and placed into the incubator (37 °C, 95% humidity, 5% CO2). […] Chrysophsin-3 at a concentration of 100 µg/mL was used as a positive control and solvent (deionized water) as a negative control. Subsequent incubation was performed for at least an additional 24 h. The result of the measurement was viability curves. After the measurement, percentages of tissue culture growth inhibition were calculated for all the tested substances, as follows: %inhibition=(1-(ΔϕCIsample)/(ΔϕCIcontrol))·100
(§3) Δ∅CIsample … the difference between the first and last average CI (cell index) values of the tissue culture in the presence of the tested sample.
(§4) Δ∅CIcontrol … the difference between the first and last average CI values of the tissue culture itself.

HEK293T = assay: Cytotoxicity assay (xCELLigence impedance); assay type: cell-based, human; details: 24 h exposure
Method: as §2, §3, §4

A. baumannii DBM 3183 = assay: microbe, parasite or virus in culture; assay type: cell-based, Acinetobacter baumannii; details: DBM 3183, 25 h
Method: as §1

`CCCCCCCCCCCCCCCC(=O)N[C@@H](CC(C)C)C(=O)N[C@H](C(=O)N[C@@H](CCCCN)C(=O)N[C@@H](CCCNC(=N)N)C(=O)N[C@@H](C)C(=O)NCC(N)=O)C(C)C` [SHP-1.2, PAL-LVKRAG-NH2] (Palmitoyl-LVKRAG-NH2) showed an MIC (B. subtilis DBM 3006; DBM 3006, 24 h) of 16.9 µg/mL (≈ 19.2 µM), an IC50 (B. subtilis DBM 3006; DBM 3006, 25 h) of 25.0 µg/mL (≈ 28.4 µM) and an MIC (Staph. aureus DBM 3002; 24 h) of 27.7 µg/mL (≈ 31.5 µM). For the same compound, the IC50 (Staph. aureus DBM 3002; 25 h) was 50.0 µg/mL (≈ 56.8 µM), the MIC (Staph. aureus MRSA1; 24 h) was 7.8 µg/mL (≈ 8.86 µM) and the IC50 (Staph. aureus MRSA1; 25 h) was 12.5 µg/mL (≈ 14.2 µM). The “% inhibition” value (HepG2; c 50 µg/mL) was 4.1 ± 0.6%, the “% inhibition” value (HepG2; c 100 µg/mL) was 42.2 ± 6.3% and the “% inhibition” value (HepG2; c 200 µg/mL) was 67.9 ± 10.2%. The “% inhibition” value (HEK293T; c 50 µg/mL) was 37.6 ± 5.6%, the “% inhibition” value (HEK293T; c 100 µg/mL) was 77.8 ± 11.7% and the “% inhibition” value (HEK293T; c 200 µg/mL) was 73.1 ± 11.0%. The IC50 (A. baumannii DBM 3183) was 60.0 µg/mL (≈ 68.2 µM).
